Patent US20240343753A1, “THERAPEUTIC COMPOUNDS” (Regents of the University of Minnesota, priority 2023, published 2024)

How the values were obtained:
K562 cells = test: 5hmC dot blot in K562 cells treated with inhibitor; assay type: cell-based, human; details: 5 μM compound, 24 hours, genomic DNA dot blot, normalized to DMSO
Protocol: Cells were grown in MEM media supplemented with 10% FBS (Gibco by Life Technologies TM, #16140-071) and AntibioticAntimycotic (Gibco by Life Technologies TM, #15240062) at 37° C. under 5% CO2. Solutions of inhibitors were prepared in dimethyl sulfoxide (DMSO) were incubated with cells at the specific concentration and duration prior to collection and extraction of genomic DNA.
For cellular assays, genomic DNA was extracted using DNA Blood/Tissue Kit, denatured, and subjected to dot blotting analysis using antibody against 5hmC (Active Motif, #39769) as previously described.^22 Briefly, 2 μg of purified DNA was denatured at 100° C. and mixed 1:1 with 2M NaOAc. DNA was loaded to the membrane, washed, and blocked with 5% NFM. Primary antibody for 5-hmC was incubated overnight and detected by fluorescence. The DNA spotted membrane was then stained with 0.02% methylene blue in 0.5 M sodium acetate (pH 5.0) for DNA loading control. The same protocol was followed for in vitro assays.
K562 cells, a TET proficient leukemia model, were treated with 5 μM of respective compound for 24 hours. Genomic DNA was extracted and 5hmC levels were quantified via dot blot (FIG. 1A and FIG. 1B).

[1] = biological target: T1, recombinant human TET1 catalytic domain (Homo sapiens, UniProt Q8NFU7); test: In vitro TET1 activity assay, LC-MS/MS quantitation of 5hmC; assay type: biochemical; details: for reduced hmC production in comparison to DMSO control: 30 minute incubation; for TET inhibition (in words): TET1 catalytic domain, hemimethylated oligomer substrate, FIG. 2
T1 construct: enzymatically active catalytic domain of human TET1; purchased Active Motif 31417
T1 sequence (Q8NFU7 1418-2136 limits assumed): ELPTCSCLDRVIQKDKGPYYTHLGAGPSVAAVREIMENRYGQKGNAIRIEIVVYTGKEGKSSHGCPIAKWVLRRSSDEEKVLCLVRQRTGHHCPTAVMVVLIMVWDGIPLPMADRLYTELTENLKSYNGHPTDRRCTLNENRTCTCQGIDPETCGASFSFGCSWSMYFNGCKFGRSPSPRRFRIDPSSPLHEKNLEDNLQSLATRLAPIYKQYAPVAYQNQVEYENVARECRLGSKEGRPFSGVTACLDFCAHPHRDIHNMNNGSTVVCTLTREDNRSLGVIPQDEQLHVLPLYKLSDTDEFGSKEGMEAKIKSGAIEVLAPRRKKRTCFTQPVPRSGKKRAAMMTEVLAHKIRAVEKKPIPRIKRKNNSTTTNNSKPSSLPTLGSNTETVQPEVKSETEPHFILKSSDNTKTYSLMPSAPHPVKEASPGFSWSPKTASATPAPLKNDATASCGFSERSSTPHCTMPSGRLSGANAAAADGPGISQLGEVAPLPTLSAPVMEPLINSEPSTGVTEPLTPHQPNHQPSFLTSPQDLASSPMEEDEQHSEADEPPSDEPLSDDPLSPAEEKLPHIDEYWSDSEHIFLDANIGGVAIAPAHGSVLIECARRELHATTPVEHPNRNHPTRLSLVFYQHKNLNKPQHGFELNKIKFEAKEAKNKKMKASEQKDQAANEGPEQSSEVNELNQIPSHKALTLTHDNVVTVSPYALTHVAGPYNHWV
Protocol: (§1) For in vitro TET assays, 10 pmol of 16-mer hemi-methylated synthetic dsDNA oligomer designed after the Rassfla tumor suppressor gene promotor (5′-AATTAGAA[5meC]GCTCCTT3′) was incubated with 2×TET reaction buffer (50 mM HEPES [pH 7.9], 100 mM NaCl, 75 μM Fe(NH4)2(SO4)2, 2 mM ascorbate, 10 μM α-ketoglutarate, 1 mM DTT), recombinant human TET1 or TET2 catalytic domain (0.2 μg, 2.3 pmol, 115 nM) and 5% DMSO (or inhibitor in DMSO) on a 20 μL scale. Timing was achieved by withholding protein until the ‘start’ of the incubation window. Reactions were completed on a dry block at 37° C. for 30 minutes. Reactions were terminated at the ‘end’ of the incubation window by transferring reaction tubes to dry ice to snap-freeze the reaction until all replicates were completed. Upon completion, all samples were heat-inactivated at 90° C. for 10 minutes and then dried entirely in SpeedVac concentrator. Sample were then prepared for LCMS or dot blot analysis. HPLC-ESI-MS/MS quantitation of 5mC and 5hmC.
Quantitation of 5hmC is based on methodology previously described in Seiler et al., with slight modification.^21 Dried enzymatic reaction samples were reconstituted with mQ-water and spiked with 1 pmol each of 5-Methyl-2′-deoxycytidine-d3 and 5-(Hydroxymethyl)-2′deoxycytidine-d3. Nucleotide digestion enzyme mix and buffer were added per product guidelines on a 20 μL scale. Samples were digested for 60 min at 37° C. on a dry block. Following digestion, samples were filtered on nanosep 10K Omega filters. The samples were then dried entirely and resuspended in 100 μL mQ-water for offline HPLC cleanup to enrich 5hmC. An Atlantis T3 column (Waters, 4.6×150 mm, 3 μm) was eluted at a flow of 0.9 mL/min with a linear gradient previously described of 5 mM NH4CHO2 buffer, pH 4.0 (A) and MeOH (B). Fractions containing 5meC and 5hmC were collected and pooled before analysis by isotope dilution HPLC-ESI-MS/MS. Pooled samples were dried and reconstituted in 2 mM ammonium formate buffer (NH4CHO2) with a Dionex Ultimate 3000UHPLC (Thermo Fisher) interfaced with a Thermo TSQ Quantis mass spectrometer (Thermo Fisher) flowing 2 mM NH4CHO2 (A) and ACN (B) at 15 μL/min through a Zorbax SB-C18 column (Agilent, 0.5×150 mm, 3 μm) with the gradients as previously described. 5meC and 5-d3-meC eluted at 5.1 minutes while 5hmC and 5-d3-hmC eluted at 3.5 minutes. Quantitation was completed monitoring MS/MS transitions m/z 242.1 [M+H^+]→m/z 126.1 [M-deoxyribose+H^+] for 5meC, m/z 245.2 [M+H^+]→m/z 129.0 [M-deoxyribose+H^+] for 5-d3-meC, m/z 258.1 [M+H^+]→m/z 142.1 [M-deoxyribose+H^+] for 5hmC, m/z 261.1 [M+H^+]→m z 145.1 [M-deoxyribose+H^+] for 5-d3-hmC. […]
Compounds 13b and 15 were taken forward and incubated with recombinant TET1 and TET2 protein to further evaluate their potential TET inhibitory activity. The compounds 13b and 15 were taken forward and evaluated in an in vitro TET activity assay with the enzymatically active catalytic domain of human TET1 using a hemimethylated synthetic oligomer substrate. Following a 30 minute enzymatic incubation time in the presence or absence of inhibitor, the reactions were halted through denaturation, and levels of 5mC 5hmC were quantified via LCMS/MS via direct isotope dilution (Seiler, C. L., et al., Biochemistry 2018, 57 (42), 6061-6069).

[2] = biological target: T2, recombinant human TET2 catalytic domain (Homo sapiens, UniProt Q6N021); test: In vitro TET2 activity assay, LC-MS/MS quantitation; assay type: biochemical; details: 30 minute incubation, FIG. 3; read-out: IC50, TET2 mediated conversion of 5mC to 5hmC
T2 construct: recombinant human TET1 or TET2 catalytic domain; purchased Active Motif 31418
Protocol: as §1, with “Upon completion, all samples were heat-inactivated at 90° C. for 10 minutes and then dried entirely in SpeedVac concentrator. Sample were then prepared for LCMS or dot blot analysis.” left out
Quantitation of 5hmC is based on methodology previously described in Seiler et al., with slight modification.^21 Dried enzymatic reaction samples were reconstituted with mQ-water and spiked with 1 pmol each of 5-Methyl-2′-deoxycytidine-d3 and 5-(Hydroxymethyl)-2′deoxycytidine-d3. […] Quantitation was completed monitoring MS/MS transitions m/z 242.1 [M+H^+]→m/z 126.1 [M-deoxyribose+H^+] for 5meC, m/z 245.2 [M+H^+]→m/z 129.0 [M-deoxyribose+H^+] for 5-d3-meC, m/z 258.1 [M+H^+]→m/z 142.1 [M-deoxyribose+H^+] for 5hmC, m/z 261.1 [M+H^+]→m z 145.1 [M-deoxyribose+H^+] for 5-d3-hmC. […]

Row | reduced hmC production in comparison to DMSO control ([1]; 10 μM inhibitor) [%] | reduced hmC production in comparison to DMSO control ([1]; 100 μM inhibitor) [%] | reduced hmC production in comparison to DMSO control ([1]; 500 μM inhibitor) [%] | TET inhibition (in words) [1] | IC50 [2] [mM] | Structure (SMILES) | lowered the relative levels of 5hmC (K562 cells) [%]
1 |  |  |  |  |  | COC(=O)/C=C/C(=O)N(O)CCC#Cc1cn([C@H]2C[C@H](O)[C@@H](CO)O2)c(=O)nc1N [Compound 11, methyl (E)-4-((4-(4-amino-1-((2R,4S,5R)-4-hydroxy-5-(hydroxymethyl)-tetrahydrofuran-2-yl)-2-oxo-1,2-dihydropyrimidin-5-yl)but-3-yn-1-yl)(hydroxy)amino)-4-oxobut-2-enoate] | 30±8
2 | 22±5 | 30±4 | 85±3 | dose-dependent TET inhibition | ~1 | Nc1nc(=O)n([C@H]2C[C@H](O)[C@@H](CO)O2)cc1C#CCCN(O)C(=O)CCC(=O)O [Compound 13b, 4-((4-(4-amino-1-((2R,4S,5R)-4-hydroxy-5-(hydroxymethyl)tetrahydrofuran-2-yl)-2-oxo-1,2-dihydropyrimidin-5-yl)but-3-yn-1-yl)(hydroxy)amino)-4-oxobutanoic acid] | 55±20
3 |  |  |  |  |  | Nc1nc(=O)n([C@H]2C[C@H](O)[C@@H](CO)O2)cc1C#CCCNC(=O)/C=C/C(=O)O [Compound 14, (E)-4-((4-(4-amino-1-((2R,4S,5R)-4-hydroxy-5-(hydroxymethyl)tetrahydrofuran-2-yl)-2-oxo-1,2-dihydropyrimidin-5-yl)but-3-yn-1-yl)amino)-4-oxobut-2-enoic acid] | 26±21
4 |  |  |  | dose-dependent TET inhibition |  | Nc1nc(=O)n([C@H]2C[C@H](O)[C@@H](CO)O2)cc1C#CCCN(O)C(=O)/C=C/C(=O)O [Compound 15, (E)-4-((4-(4-amino-1-((2R,4S,5R)-4-hydroxy-5-(hydroxymethyl)tetrahydrofuran-2-yl)-2-oxo-1,2-dihydropyrimidin-5-yl)but-3-yn-1-yl)(hydroxy)amino)-4-oxobut-2-enoic acid] | 47±45
